Results published in patent US8119660B2, “Small-molecule inhibitors of the androgen receptor” (The Regents of the University of California, priority 2007, dated 2012).
Entries after “also recorded” stand apart in the source; their conditions may differ. Where a name gives a salt, the structure may show the parent alone.

Experiments:
[1] = molecular target: T1, endogenous AR with a mutation (T877A), LNCaP cells (Homo sapiens, UniProt P10275, T878A); assay: PSA-luciferase reporter assay in LNCaP cells with DHT; type: cell-based
T1 construct: that each express endogenous AR; endogenous in cells; host or cells: LNCaP
T1 sequence (P10275 1-920 T878A): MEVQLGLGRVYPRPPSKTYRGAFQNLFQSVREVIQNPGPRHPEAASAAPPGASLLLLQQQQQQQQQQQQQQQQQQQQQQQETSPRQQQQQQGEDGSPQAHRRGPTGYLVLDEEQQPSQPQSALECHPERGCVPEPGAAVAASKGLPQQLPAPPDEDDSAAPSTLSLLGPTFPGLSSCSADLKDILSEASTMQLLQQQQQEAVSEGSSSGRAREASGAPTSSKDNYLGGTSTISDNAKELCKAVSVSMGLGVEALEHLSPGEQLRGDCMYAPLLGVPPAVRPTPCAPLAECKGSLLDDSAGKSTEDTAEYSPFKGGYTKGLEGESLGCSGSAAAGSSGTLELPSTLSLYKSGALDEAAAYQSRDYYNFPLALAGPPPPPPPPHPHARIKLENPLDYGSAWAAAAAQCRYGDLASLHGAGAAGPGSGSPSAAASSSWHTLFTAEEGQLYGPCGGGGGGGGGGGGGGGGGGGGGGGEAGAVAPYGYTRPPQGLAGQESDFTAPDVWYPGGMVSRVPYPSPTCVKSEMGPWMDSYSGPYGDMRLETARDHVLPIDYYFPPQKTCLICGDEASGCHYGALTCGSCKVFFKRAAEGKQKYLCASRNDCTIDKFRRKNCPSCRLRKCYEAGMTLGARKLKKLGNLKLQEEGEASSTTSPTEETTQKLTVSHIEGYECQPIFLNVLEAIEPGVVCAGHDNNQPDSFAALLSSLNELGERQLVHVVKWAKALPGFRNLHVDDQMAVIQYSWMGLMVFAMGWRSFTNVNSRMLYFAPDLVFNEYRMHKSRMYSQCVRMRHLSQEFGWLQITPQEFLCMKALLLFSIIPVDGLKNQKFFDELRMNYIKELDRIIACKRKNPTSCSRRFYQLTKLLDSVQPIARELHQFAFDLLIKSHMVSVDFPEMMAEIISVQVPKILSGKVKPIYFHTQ
Method: Cells were transfected with two reporter plasmids, a PSA-luciferase construct (androgen responsive), and an SV40-renilla luciferase construct as an internal control. The following day, the cells were split and drugs added in the presence of 3 nM DHT. Luciferase production was measured the following day (Dual luciferase assay kit, Promega).
Synergism can be defined as a combination index of less than one, using the non-exclusive assumption described by Chou et al. (Chou, T. C. and P. Talalay, Quantitative analysis of dose-effect relationships: the combined effects of multiple drugs or enzyme inhibitors. Adv Enzyme Regul, 1984. 22: p. 27-55).

[2] = tested on: endogenous AR-regulated gene expression, LAPC4 cells; assay: qRT-PCR of androgen-responsive genes in LAPC4 cells; type: cell-based, human; settings: No DHT = 1, 3 nM DHT alone or with 1 uM BIC, 100 nM PP or 100 nM HH
Method: LAPC4 and LNCaP cells were grown in the presence or absence of 3 nM DHT in charcoal-stripped media, with or without the inhibitors. RNA was harvested using an RNAeasy kit (Qiagen) and reverse transcribed (MMLV-RT, Invitrogen). Real-time PCR was carried out on a 7300 Real Time PCR System (Applied Biosystems) using SYBR green as the detecting dye and Rox as the reference dye. The androgen responsive genes kalikrein 3, or PSA (KLK3) [Cleutjens, K. B., et al., Two androgen response regions cooperate in steroid hormone regulated activity of the prostate-specific antigen promoter. J Biol Chem, 1996. 271(11): p. 6379-88; Nelson, P. S., et al., The program of androgen-responsive genes in neoplastic prostate epithelium. Proc Natl Acad Sci USA, 2002. 99(18): p. 11890-5), metalloproteinase 16 (MMP16) (Nelson, P. S., et al., The program of androgen-responsive genes in neoplastic prostate epithelium. Proc Natl Acad Sci USA, 2002. 99(18): p. 11890-5), transmembrane protease serine 2 (TMPRSS2) (Nelson, P. S., et al., The program of androgen-responsive genes in neoplastic prostate epithelium. Proc Natl Acad Sci USA, 2002. 99(18): p. 11890-5; […] Vaarala, M. H., et al., Expression of transmembrane serine protease TMPRSS2 in mouse and human tissues. J Pathol, 2001. 193(1): p. 134-40), FK506-binding immunophilin 51 (FKBP51) (Nelson, P. S., et al., The program of androgen-responsive genes in neoplastic prostate epithelium. Proc Natl Acad Sci USA, 2002. 99(18): p. 11890-5; Amler, L. C., et al., Dysregulated expression of androgen-responsive and nonresponsive genes in the androgen-independent prostate cancer xenograft model CWR22-R1. Cancer Res, 2000. 60(21): p. 6134-41; Velasco, A. M., et al., Identification and validation of novel androgen-regulated genes in prostate cancer. Endocrinology, 2004. 145(8): p. 3913-24; Magee, J. A., et al., Direct, androgen receptor-mediated regulation of the FKBP5 gene via a distal enhancer element. Endocrinology, 2006. 147(1): p. 590-8), G-protein coupled receptor RDC1 homolog, or chemokine orphan receptor 1 (RDC-1) (Nelson, P. S., et al., The program of androgen-responsive genes in neoplastic prostate epithelium. Proc Natl Acad Sci USA, 2002. 99(18): p. 11890-5), NK homeobox family member 3 (Nk×3.1) (Nelson, P. S., et al., The program of androgen-responsive genes in neoplastic prostate epithelium. Proc Natl Acad Sci USA, 2002. 99(18): p. 11890-5; Bieberich, C. J., et al., Prostate-specific and androgen-dependent expression of a novel homeobox gene. J Biol Chem, 1996. 271(50): p. 31779-82; […]) were all normalized to the transcription of the housekeeping ribosomal gene (RPL19). All samples were done in triplicate and separately normalized.

Cc1nccc2c1[nH]c1cc(O)ccc12 [HH, harmol hydrochloride]
IC50 ([1]; LNCaP cells, 3 nM DHT): 127 nM
Mode of antagonism: effect on DHT dose-response of PSA-luciferase ([1]; LNCaP, DHT titrated, moderate dose of each inhibitor, hydrochloride): inhibited maximal DHT-induced activation; also recorded: pattern consistent with a non-competitive antagonist
FKBP51 transcription (normalized to RPL19) [2]: 11.96
KLK3 transcription (normalized to RPL19) [2]: 1.64
MMP16 transcription (normalized to RPL19), androgen-repressed gene [2]: 4.74
Nkx3.1 transcription (normalized to RPL19) [2]: 1.55
RDC1 transcription (normalized to RPL19), androgen-repressed gene [2]: 2.88
TMPRSS2 transcription (normalized to RPL19) [2]: 1.86
